Converted amounts (≈) assume the structure as drawn. Where two headings read alike, the source gives them in different places. Values belong to the molecule of their own block, whether it stands above or below them.
Key:
Format in all cases: cell-based
E. coli 01 = test: agar serial dilution test (MIC)
Method: (§1) The antibiotic activity in vitro of some compounds according to the invention and of some previously known compounds was tested by means of an agar serial dilution test. The following compounds were tested: 7β-[2-(2-Aminothiazol-4-yl)-2-diethylphosphoryloxyiminoacetamido] cephalosporanic acid (designated ES 643, 7β-[2-(2-amino- thiazol-4-yl)-2-dimethylphosphoryloxyiminoacetamido] cephalosporanic acid (designated ES 671), 7β-[2-(2-amino- thiazol-4-yl)-2-dimorpholinophosphoryloxyiminoacetamido] cephalosporanic acid (designated ES 656), 7β-[2-(2-amino- thiazol-4-yl)-2-methylmethylphosphonyloxyiminoacetamido] cephalosporanic acid (designated ES 682), 7β-[2-(2-amino- thiazol-4-yl)-2-hydroxyiminoacetamido] cephalosporanic acid (designated A), cefuroxime (designated B), and cephalotin (designated C). MIC designates minimum inhibitory concentration.

E. coli 04 = test: agar serial dilution test (MIC)
Method: as §1

K. edwardsii K1 = test: agar serial dilution test (MIC)
Method: as §1

K. pneumoniae K8 = test: agar serial dilution test (MIC); details: Klebsiella pneumoniae
Method: as §1

P. mirabilis 2255 = test: agar serial dilution test (MIC)
Method: as §1

P. mirabilis 2311 = test: agar serial dilution test (MIC)
Method: as §1

P. mirabilis 682 = test: agar serial dilution test (MIC)
Method: as §1

P. morganii 18 = test: agar serial dilution test (MIC)
Method: as §1

P. morganii 69 = test: agar serial dilution test (MIC)
Method: as §1

P. vulgaris 16868 = test: agar serial dilution test (MIC)
Method: as §1

P. vulgaris 17028 = test: agar serial dilution test (MIC)
Method: as §1

P. vulgaris 5209 = test: agar serial dilution test (MIC)
Method: as §1

S. albus 12228 = test: agar serial dilution test (MIC)
Method: as §1

S. albus 3348 = test: agar serial dilution test (MIC)
Method: as §1

S. albus 3578 = test: agar serial dilution test (MIC)
Method: as §1

S. aureus 13709 = test: agar serial dilution test (MIC)
Method: as §1

S. aureus 209P = test: agar serial dilution test (MIC); details: Staphylococcus aureus
Method: as §1

S. aureus 3349 = test: agar serial dilution test (MIC)
Method: as §1

S. aureus 3356 = test: agar serial dilution test (MIC)
Method: as §1

S. pyogenes 12334 = test: agar serial dilution test (MIC)
Method: as §1

S. pyogenes 12384 = test: agar serial dilution test (MIC)
Method: as §1

P. vulgaris ATCC 6897 = test: MIC value stated in Example 8; details: Proteus vulgaris, ATCC6897; against P. vulgaris ATCC 6897
[1] = Escherichia coli, 01, read-out: MIC value in μg/ml
[2] = Escherichia coli, 04, read-out: MIC value in μg/ml
[3] = K8, read-out: MIC value in μg/ml
[4] = Proteus mirabilis, 2255, read-out: MIC value in μg/ml
[5] = Proteus mirabilis, 2311, read-out: MIC value in μg/ml
[6] = Proteus mirabilis, 682, read-out: MIC value in μg/ml
[7] = Morganella morganii, 18, read-out: MIC value in μg/ml
[8] = Morganella morganii, 69, read-out: MIC value in μg/ml
[9] = Proteus vulgaris, 16868, read-out: MIC value in μg/ml
[10] = Proteus vulgaris, 17028, read-out: MIC value in μg/ml
[11] = Proteus vulgaris, 5209, read-out: MIC value in μg/ml
[12] = Staphylococcus albus, 12228, read-out: MIC value in μg/ml
[13] = Staphylococcus albus, 3348, read-out: MIC value in μg/ml
[14] = Staphylococcus albus, 3578, read-out: MIC value in μg/ml
[15] = Staphylococcus aureus, 13709, read-out: MIC value in μg/ml
[16] = 209P, read-out: MIC value in μg/ml
[17] = Staphylococcus aureus, 3349, read-out: MIC value in μg/ml
[18] = Staphylococcus aureus, 3356, read-out: MIC value in μg/ml
[19] = Streptococcus pyogenes, 12334, read-out: MIC value in μg/ml
[20] = Streptococcus pyogenes, 12384, read-out: MIC value in μg/ml

Structure (SMILES): CCOP(=O)(OCC)ON=C(C(=O)NC1C(=O)N2C(C(=O)O)=C(COC(C)=O)CSC12)c1csc(N)n1 (stereo not drawn) [ES 643, 7β-[2-(2-Aminothiazol-4-yl)-2-diethylphosphoryloxyiminoacetamido] cephalosporanic acid]
- MIC (E. coli 01; [1]): 0.2 µg/mL (≈ 0.346 µM)
- MIC (E. coli 04; [2]): 0.8 µg/mL (≈ 1.39 µM)
- MIC (K. edwardsii K1; read-out: MIC value in μg/ml): 0.8 µg/mL (≈ 1.39 µM)
- MIC (K. pneumoniae K8; [3]): 1.6 µg/mL (≈ 2.77 µM)
- MIC (P. mirabilis 2255; [4]): < 0.1 µg/mL
- MIC (P. mirabilis 2311; [5]): < 0.1 µg/mL
- MIC (P. mirabilis 682; [6]): < 0.1 µg/mL
- MIC (P. morganii 18; [7]): 1.6 µg/mL (≈ 2.77 µM)
- MIC (P. morganii 69; [8]): 0.2 µg/mL (≈ 0.346 µM)
- MIC (P. vulgaris 16868; [9]): 0.2 µg/mL (≈ 0.346 µM)
- MIC (P. vulgaris 17028; [10]): 0.2 µg/mL (≈ 0.346 µM)
- MIC (P. vulgaris 5209; [11]): 0.8 µg/mL (≈ 1.39 µM)
- MIC (S. albus 12228; [12]): 1.6 µg/mL (≈ 2.77 µM)
- MIC (S. albus 3348; [13]): 0.8 µg/mL (≈ 1.39 µM)
- MIC (S. albus 3578; [14]): 1.6 µg/mL (≈ 2.77 µM)
- MIC (S. aureus 13709; [15]): 3.1 µg/mL (≈ 5.37 µM)
- MIC (S. aureus 209P; [16]): 3.1 µg/mL (≈ 5.37 µM)
- MIC (S. aureus 3349; [17]): 1.6 µg/mL (≈ 2.77 µM)
- MIC (S. aureus 3356; [18]): 1.6 µg/mL (≈ 2.77 µM)
- MIC (S. pyogenes 12334; [19]): < 0.1 µg/mL
- MIC (S. pyogenes 12384; [20]): < 0.1 µg/mL

Structure (SMILES): COP(=O)(O)ON=C(C(=O)NC1C(=O)N2C(C(=O)O)=C(COC(C)=O)CSC12)c1csc(N)n1 (stereo not shown) [Example 8b]
- MIC (P. vulgaris ATCC 6897): 0.2 µg/mL (≈ 0.374 µM)

- MIC (E. coli 01; Escherichia coli, E. coli 01, read-out: MIC value): < 0.1 µg/mL
- MIC (E. coli 04; Escherichia coli, E. coli 04, read-out: MIC value): 0.2 µg/mL (≈ 0.453 µM)
- MIC (K. edwardsii K1; K. edwardsii K1, read-out: MIC value): 0.2 µg/mL (≈ 0.453 µM)
- MIC (K. pneumoniae K8; K. pneumoniae K8, read-out: MIC value): 0.4 µg/mL (≈ 0.906 µM)
- MIC (P. mirabilis 2255; Proteus mirabilis, P. mirabilis 2255, read-out: MIC value): < 0.1 µg/mL
- MIC (P. mirabilis 2311; Proteus mirabilis, P. mirabilis 2311, read-out: MIC value): < 0.1 µg/mL
- MIC (P. mirabilis 682; Proteus mirabilis, P. mirabilis 682, read-out: MIC value): < 0.1 µg/mL
- MIC (P. morganii 18; Morganella morganii, P. morganii 18, read-out: MIC value): 0.2 µg/mL (≈ 0.453 µM)
- MIC (P. morganii 69; Morganella morganii, P. morganii 69, read-out: MIC value): 0.2 µg/mL (≈ 0.453 µM)
- MIC (P. vulgaris 16868; Proteus vulgaris, P. vulgaris 16868, read-out: MIC value): 1.6 µg/mL (≈ 3.62 µM)
- MIC (P. vulgaris 17028; Proteus vulgaris, P. vulgaris 17028, read-out: MIC value): 0.8 µg/mL (≈ 1.81 µM)
- MIC (P. vulgaris 5209; Proteus vulgaris, P. vulgaris 5209, read-out: MIC value): 6.2 µg/mL (≈ 14 µM)
- MIC (S. albus 12228; Staphylococcus albus, S. albus 12228, read-out: MIC value): 0.8 µg/mL (≈ 1.81 µM)
- MIC (S. albus 3348; Staphylococcus albus, S. albus 3348, read-out: MIC value): 0.8 µg/mL (≈ 1.81 µM)
- MIC (S. albus 3578; Staphylococcus albus, S. albus 3578, read-out: MIC value): 0.8 µg/mL (≈ 1.81 µM)
- MIC (S. aureus 13709; Staphylococcus aureus, S. aureus 13709, read-out: MIC value): 1.6 µg/mL (≈ 3.62 µM)
- MIC (S. aureus 209P; S. aureus 209P, read-out: MIC value): 1.6 µg/mL (≈ 3.62 µM)
- MIC (S. aureus 3349; Staphylococcus aureus, S. aureus 3349*, penicillin-resistant strain, read-out: MIC value): 1.6 µg/mL (≈ 3.62 µM)
- MIC (S. aureus 3356; Staphylococcus aureus, S. aureus 3356*, penicillin-resistant strain, read-out: MIC value): 0.8 µg/mL (≈ 1.81 µM)
- MIC (S. pyogenes 12334; Streptococcus pyogenes, S. pyogenes 12334, read-out: MIC value): < 0.1 µg/mL
- MIC (S. pyogenes 12384; Streptococcus pyogenes, S. pyogenes 12384, read-out: MIC value): < 0.1 µg/mL
Structure (SMILES): CC(=O)OCC1=C(C(=O)O)N2C(=O)C(NC(=O)C(=NO)c3csc(N)n3)C2SC1 (stereo not drawn) [A, 7β-[2-(2-amino-thiazol-4-yl)-2-hydroxyiminoacetamido] cephalosporanic acid, reference compound]

Structure (SMILES): CC(=O)OCC1=C(C(=O)O)N2C(=O)[C@@H](NC(=O)Cc3cccs3)[C@H]2SC1 [C, cephalotin, reference compound]
- MIC (E. coli 01; [1]): 6.2 µg/mL (≈ 15.6 µM)
- MIC (E. coli 04; [2]): 12.5 µg/mL (≈ 31.5 µM)
- MIC (K. edwardsii K1; read-out: MIC value in μg/ml): 0.2 µg/mL (≈ 0.504 µM)
- MIC (K. pneumoniae K8; [3]): 50 µg/mL (≈ 126 µM)
- MIC (P. mirabilis 2255; [4]): 3.1 µg/mL (≈ 7.82 µM)
- MIC (P. mirabilis 2311; [5]): 12.5 µg/mL (≈ 31.5 µM)
- MIC (P. mirabilis 682; [6]): 6.2 µg/mL (≈ 15.6 µM)
- MIC (P. morganii 18; [7]): > 100 µg/mL
- MIC (P. morganii 69; [8]): > 100 µg/mL
- MIC (P. vulgaris 16868; [9]): > 100 µg/mL
- MIC (P. vulgaris 17028; [10]): > 100 µg/mL
- MIC (P. vulgaris 5209; [11]): > 100 µg/mL
- MIC (S. albus 12228; [12]): 0.2 µg/mL (≈ 0.504 µM)
- MIC (S. albus 3348; [13]): < 0.1 µg/mL
- MIC (S. albus 3578; [14]): < 0.1 µg/mL
- MIC (S. aureus 13709; [15]): 0.4 µg/mL (≈ 1.01 µM)
- MIC (S. aureus 209P; [16]): < 0.1 µg/mL
- MIC (S. aureus 3349; [17]): 0.4 µg/mL (≈ 1.01 µM)
- MIC (S. aureus 3356; [18]): < 0.1 µg/mL
- MIC (S. pyogenes 12334; [19]): < 0.1 µg/mL
- MIC (S. pyogenes 12384; [20]): < 0.1 µg/mL
